Residue numbers refer to the chain shown, from its start. Like-named read-outs stand apart in the source and are kept apart here.
How the values were obtained:
mutant MGL = biological target: T1, mutant MGL (Homo sapiens, UniProt Q99685, L169S/L176S); assay: MGL ThermoFluor assay - mutant; type: binding
T1 sequence (Q99685 1-303 L169S/L176S): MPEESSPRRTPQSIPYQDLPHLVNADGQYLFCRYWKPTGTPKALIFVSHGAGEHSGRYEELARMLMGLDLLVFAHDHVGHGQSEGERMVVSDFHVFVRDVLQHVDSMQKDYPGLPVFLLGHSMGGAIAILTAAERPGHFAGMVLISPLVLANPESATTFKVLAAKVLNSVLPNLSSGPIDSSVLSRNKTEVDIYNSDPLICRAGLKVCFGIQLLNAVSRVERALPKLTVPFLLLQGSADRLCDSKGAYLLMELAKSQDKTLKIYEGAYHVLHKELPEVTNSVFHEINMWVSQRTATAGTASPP

[1] = biological target: T2, purified wild type MGL (wt-MGLL 6H-11-313) (Homo sapiens, UniProt Q99685)
T2 sequence (Q99685 1-303): T1 sequence (Q99685 1-303 L169S/L176S) with S169L, S176L

[2] = ThermoFluor, compound concentration measured by qNMR, read-out: MGL mutant ThermoFluor qKd (μM) (using qNMR conc.)
[3] = ThermoFluor concentration-response, read-out: MGL mutant ThermoFluor Kd
[4] = compound concentration measured by qNMR, read-out: MGL mutant ThermoFluor qKd (using qNMR conc.)
[5] = ThermoFluor thermal stability binding assay, read-out: MGL mutant ThermoFluor Kd
[6] = ThermoFluor, compound concentration measured by qNMR, read-out: MGL mutant ThermoFluor qKd (using qNMR conc.)

IC50 [1] [nM]	Compound	further results
2290	O=C(c1cscn1)N1CC(N2CCN(C(=O)c3ccc(-c4ccccc4)cc3)C(Cc3ccccc3)C2)C1 (stereo not drawn) [Cpd 1284, 2-Benzyl-1-(biphenyl-4-ylcarbonyl)-4-[1-(1,3-thiazol-4-ylcarbonyl)azetidin-3-yl]piperazine]	Kd (mutant MGL; [3]): 0.041 µM
6030	O=C(c1cscn1)N1CCN(C2CN(C(=O)c3nn(-c4ccc(Cl)cc4Cl)c4c3CCCC4)C2)CC1 [Cpd 1304]	Kd (mutant MGL; [4]): 7.9 µM
9	O=C(c1ccc(OCc2ccc3ccccc3n2)cc1)N1CC(N2CCN(C(=O)c3nccs3)CC2)C1 [Cpd 967]	Kd (mutant MGL; [5]): 0.044 µM
80.8	O=C(c1ccccc1)N1CCN(C2CN(C(=O)c3ccc(-c4cccc(C(F)(F)F)c4)cc3Cl)C2)CC1 [Cpd 252, 1-(1-{[3-Chloro-3′-(trifluoromethyl)biphenyl-4-yl]carbonyl}azetidin-3-yl)-4-(phenylcarbonyl)piperazine]	Kd (mutant MGL; [5]): 0.05 µM
> 16700	O=C(c1cscn1)N1CCN(C2CN(C(=O)c3cc4cc(Br)cnc4o3)C2)CC1 [Cpd 1448]	Kd (mutant MGL; [5]): 7.09 µM
506	O=C(c1ccc(-c2ccccc2)cc1)N1CCN(C2CN(C(=O)c3cscn3)C2)CC1 [Cpd 1246, 1-(Biphenyl-4-ylcarbonyl)-4-[1-(1,3-thiazol-4-ylcarbonyl)azetidin-3-yl]piperazine]	Kd (mutant MGL; [3]): 0.042 µM
3290	Cc1nc2cc(Cl)ccc2cc1C(=O)N1CC(N2CCN(C(=O)c3nccs3)CC2)C1 [Cpd 826]	Kd (mutant MGL; [6]): 0.663 µM
12900	O=C(c1ccc(Oc2ccccn2)cc1)N1CC(N2CCN(C(=O)C(F)(F)F)CC2)C1 [Cpd 869]	Kd (mutant MGL; [4]): 6.2 µM
695	O=C(c1ccc2c(ccn2Cc2cccnc2)c1)N1CC(N2CCN(C(=O)c3nccs3)CC2)C1 [Cpd 1048]	Kd (mutant MGL; [4]): 0.146 µM
< 5	Cc1cc(C(=O)N2CC(N3CCN(C(=O)c4nccs4)CC3)C2)cc2ccn(-c3ccc(F)cc3)c12 [Cpd 1355, 1-(4-Fluorophenyl)-7-methyl-5-({3-[4-(1,3-thiazol-2-ylcarbonyl)piperazin-1-yl]azetidin-1-yl}carbonyl)-1H-indole]	Kd (mutant MGL; [4]): 0.002 µM
154	Cc1c(C(=O)N2CC(N3CCN(C(=O)c4nccs4)CC3)C2)[nH]c2ccc(F)cc12 [Cpd 719]	Kd (mutant MGL; [6]): 0.119 µM
1830	O=C(c1cnc2ccn(-c3ccc(F)cc3)c2c1)N1CC(N2CCN(C(=O)c3nccs3)CC2)C1 [Cpd 1277]	Kd (mutant MGL; [2]): 2.72 µM
2080	O=C(c1ccc2c(c1)[S+]([O-])c1ccccc1O2)N1CC(N2CCN(C(=O)c3nccs3)CC2)C1 (stereo not drawn) [Cpd 807]	Kd (mutant MGL; [4]): 3.65 µM
135	O=C(c1nccs1)N1CCN(C2CN(C(=O)c3sc4cc(F)ccc4c3C3CC3)C2)CC1 [Cpd 714, 1-{1-[(3-Cyclopropyl-6-fluoro-1-benzothiophen-2-yl)carbonyl]azetidin-3-yl}-4-(1,3-thiazol-2-ylcarbonyl)piperazine]	Kd (mutant MGL; [3]): 0.005 µM
6	COc1c(C(=O)N2CC(N3CCN(C(=O)c4nccs4)CC3)C2)sc2cc(C(F)(F)F)ccc12 [Cpd 649, 1-(1-{[3-Methoxy-6-(trifluoromethyl)-1-benzothiophen-2-yl]carbonyl}azetidin-3-yl)-4-(1,3-thiazol-2-ylcarbonyl)piperazine]	Kd (mutant MGL; [4]): 0.001 µM
4630	O=C(c1ccc2ccn(Cc3ccncc3)c2c1)N1CC(N2CCN(C(=O)c3nccs3)CC2)C1 [Cpd 1047]	Kd (mutant MGL; [4]): 0.471 µM
2640	CCNC(=O)COc1ccc(C(=O)N2CC(N3CCN(C(=O)c4nccs4)CC3)C2)cc1 [Cpd 816]	Kd (mutant MGL; [6]): 2.84 µM
12	CC(c1ccccc1)n1ncc2cc(C(=O)N3CC(N4CCN(C(=O)c5nccs5)CC4)C3)ccc21 (stereo not drawn) [Cpd 1411, 1-(1-Phenylethyl)-5-({3-[4-(1,3-thiazol-2-ylcarbonyl)piperazin-1-yl]azetidin-1-yl}carbonyl)-1H-indazole]	Kd (mutant MGL; [4]): 0.001 µM
667	O=C(c1ccc(Oc2ccc(Br)cn2)cc1)N1CC(N2CCN(C(=O)c3cscn3)CC2)C1 [Cpd 765]	Kd (mutant MGL; [3]): 3.09 µM
< 5	O=C(c1ccc(OCc2cccc(Cl)c2)cc1)N1CC(N2CCN(C(=O)c3nccs3)CC2)C1 [Cpd 957]	Kd (mutant MGL; [5]): 0.008 µM
16	O=C(c1ccc(-c2cccc(C(F)(F)F)c2)cc1)N1CC(N2CCN(C(=O)C3CC3(F)F)CC2)C1 (stereo not drawn) [Cpd 1112]	Kd (mutant MGL; [2]): 0.046 µM
2150	O=C(c1ccc(Oc2ccccc2Cl)nc1)N1CC(N2CCN(C(=O)c3cscn3)CC2)C1 [Cpd 811]	Kd (mutant MGL; [3]): 3.33 µM
9220	CC(C)(C)OC(=O)N1CCc2cccc(C(=O)N3CC(N4CCN(C(=O)c5cscn5)CC4)C3)c2C1 [Cpd 861]	Kd (mutant MGL; [5]): 2.63 µM
> 16700	O=C(c1ccc[nH]1)N1CCN(C2CN(C(=O)c3cc4ccc(C(F)(F)F)nc4o3)C2)CC1 [Cpd 1446]	Kd (mutant MGL; [5]): 62.5 µM

The remaining lines, values behind:

Compound	IC50 [1] [nM]	further results
O=C(c1cccc(F)c1)N1CCN(C2CN(C(=O)c3ccc4c(ccn4-c4ccc(F)cc4)c3)C2)CC1 [Cpd 1424]	75	Kd (mutant MGL; [2]): 0.124 µM
O=C(c1ccc(Oc2ncc(C(F)(F)F)cc2Cl)cc1)N1CC(N2CCN(C(=O)C(F)(F)F)CC2)C1 [Cpd 802]	1720	Kd (mutant MGL; [4]): 1.67 µM
Cc1cc(-n2ccc3cc(C(=O)N4CC(N5CCN(C(=O)c6nccs6)CC5)C4)ccc32)ccn1 [Cpd 1410, 1-(2-Methylpyridin-4-yl)-5-({3-[4-(1,3-thiazol-2-ylcarbonyl)piperazin-1-yl]azetidin-1-yl}carbonyl)-1H-indole]	89	Kd (mutant MGL; [6]): 0.014 µM
O=C(c1cnc2ccc(Cl)cc2c1)N1CC(N2CCN(C(=O)c3nccs3)CC2)C1 [Cpd 797]	1600	Kd (mutant MGL; [6]): 0.489 µM
N#Cc1cc(-n2ccc3cc(C(=O)N4CC(N5CCN(C(=O)c6nccs6)CC5)C4)ccc32)ccc1F [Cpd 1417, 2-Fluoro-5-[5-({3-[4-(1,3-thiazol-2-ylcarbonyl)piperazin-1-yl]azetidin-1-yl}carbonyl)-1H-indol-1-yl]benzonitrile]	< 5	Kd (mutant MGL; [3]): 0.025 µM
COc1cccc2c(C)c(C(=O)N3CC(N4CCN(C(=O)c5cscn5)CC4)C3)[nH]c12 [Cpd 840]	5160	Kd (mutant MGL; [3]): 2 µM
Cc1c(C(=O)N2CC(N3CCN(C(=O)c4cscn4)CC3)C2)n(C)c2ccc(Cl)cc12 [Cpd 758]	535	Kd (mutant MGL; [6]): 0.5 µM
Cc1nc2cc(C(=O)N3CC(N4CCN(C(=O)c5nccs5)CC4)C3)ccc2n1CCC(F)(F)F [Cpd 777]	913	Kd (mutant MGL; [4]): 0.048 µM
Cc1c(Cc2ccc(C(F)(F)F)cc2)cccc1C(=O)N1CC(N2CCN(C(=O)c3cncs3)CC2)C1 [Cpd 1015]	777	Kd (mutant MGL; [3]): 1.18 µM
O=C(c1ccc2[nH]c(C3CCCCC3)nc2c1)N1CCN(C2CN(C(=O)c3cscn3)C2)CC1 [Cpd 853]	8340	Kd (mutant MGL; [3]): 1 µM
O=C(c1cccc(NCc2ccccc2)c1)N1CC(N2CCN(C(=O)c3nccs3)CC2)C1 [Cpd 713]	135	Kd (mutant MGL; [5]): 0.1 µM
O=C(c1ccc2[nH]ccc2c1)N1CC(N2CCN(C(=O)c3ccc[nH]3)CC2)C1 [Cpd 856]	8490	Kd (mutant MGL; [2]): 0.855 µM
Cc1nc2cc(C(=O)N3CC(N4CCN(C(=O)c5nccs5)CC4)C3)ccc2n1-c1ccccc1 [Cpd 1229]	306	Kd (mutant MGL; [4]): 0.011 µM
O=C(c1ccc2cn(Cc3ccc(F)cc3)nc2c1)N1CC(N2CCN(C(=O)c3nccs3)CC2)C1 [Cpd 1052, 2-(4-Fluorobenzyl)-6-({3-[4-(1,3-thiazol-2-ylcarbonyl)piperazin-1-yl]azetidin-1-yl}carbonyl)-2H-indazole]	28	Kd (mutant MGL; [4]): 0.065 µM
O=C(c1ccc(-c2cccc(C(F)(F)F)c2)cc1)N1CC(N2CCN(C(=O)c3cocn3)CC2)C1 [Cpd 1094]	11	Kd (mutant MGL; [2]): 0.012 µM
O=C(c1ccc2c(c1)C(Cc1cccc(C(F)(F)F)c1)(Cc1cccc(C(F)(F)F)c1)C(=O)N2)N1CC(N2CCN(C(=O)c3nccs3)CC2)C1 [Cpd 992]	7760	Kd (mutant MGL; [3]): 0.561 µM
O=C(c1nccs1)N1CCN(C2CN(C(=O)c3ccc4c(ccn4-c4ccc(F)cc4)c3Cl)C2)CC1 [Cpd 1414, 4-Chloro-1-(4-fluorophenyl)-5-({3-[4-(1,3-thiazol-2-ylcarbonyl)piperazin-1-yl]azetidin-1-yl}carbonyl)-1H-indole]	11	Kd (mutant MGL; [4]): 0.003 µM
O=C(c1cccc(-c2cccc(F)c2)c1)N1CC(N2CCN(C(=O)c3cscn3)CC2)C1 [Cpd 1228]	295	Kd (mutant MGL; [3]): 1.42 µM
O=C(c1ccc(Oc2ncc(C(F)(F)F)cc2Cl)cc1)N1CC(N2CCN(C(=O)c3cscn3)CC2)C1 [Cpd 720]	173	Kd (mutant MGL; [3]): 0.347 µM
O=C(c1ccccc1)N1CCN(C2CN(C(=O)c3cc4cc(Cl)ccc4o3)C2)CC1 [Cpd 1491]	> 16700	Kd (mutant MGL; [5]): 12.5 µM
Cc1c(C(=O)N2CC(N3CCN(C(=O)c4cscn4)CC3)C2)oc2ccc(F)cc12 [Cpd 862]	9510	Kd (mutant MGL; [3]): > 21.9 µM

From US8362000B2, “Azetidinyl diamides as monoacylglycerol lipase inhibitors” (Janssen Pharmaceutica NV, priority 2009, dated 2013)
